Columns and labels:
[1] = tested on: peripheral T-cell lymphoma (PTCL); assay: Randomized Phase 2 dose finding study of Pralatrexate-COP versus CHOP; parameters: species or system human; details: in vivo, iv
Description: This experiment was performed to identify the suitable dose of Pralatrexate that would be optimal in polychemotherapy for the next study (phase-III) based on safety and ORR (objective response rate) at 3 months. Initially, a lower dose of 20 mg/m^2 was compared to 30 mg/m^2 combined with COP. Therefore, these two dose levels were assigned randomly to 20 patients in addition to COP (Pralatrexate-COP). […] Dose effect on polyglutamate-Pralatrexate, DNA hypomethylation or H3-acetylation was evaluated in this part of the study as a surrogate for PD (pharmacodynamics) drug exposure. […] Further objective of dose finding study was also to evaluate the safety profiles for patients with newly diagnosed PTCL treated with Pralatrexate-COP compared to CHOP alone.
In the dose finding study, each investigational arm was having two dose levels which was compared with CHOP as reference. Treatment was randomized in three arms, Group 1a (Pralatrexate-COP) Pralatrexate 20 mg/m^2, Group 1b Pralatrexate 30 mg/m^2, all added to standard CHOP or COP respectively, and Group 2 for CHOP alone. […]

[2] = cumulative dose of doxorubicin >200 mg/m^2, CHOP regimen, aggressive Non-Hodgkin Lymphoma patients; cited from earlier work
[3] = tested on: PTCL; details: anthracycline-based regimens; cited from earlier work

Compound | effect in combination with COP [1] | patients with cardiac events [2] | survival impact of inclusion in a polychemotherapy regimen [3]
C#CCC(Cc1cnc2nc(N)nc(N)c2n1)c1ccc(C(=O)N[C@@H](CCC(=O)O)C(=O)O)cc1 (mixture of isomers) [Pralatrexate] | synergistic effect |  | 
COc1cccc2c1C(=O)c1c(O)c3c(c(O)c1C2=O)C[C@@](O)(C(=O)CO)C[C@@H]3O[C@H]1C[C@H](N)[C@H](O)[C@H](C)O1 [Doxorubicin] |  | 27% | not associated with a survival improvement

Reference: US20260130919A1 (priority 2023, published 2026)
